For 19 compounds, IC50 results are on record in US8901118B2, “Compounds and methods for kinase modulation, and indications therefor” (Plexxikon Inc., priority 2010, dated 2014).

One experiment has as its target CYP2C19 (Homo sapiens, UniProt P33261). The experiment in a line: CYP2C19 inhibition (fluorescent substrate CEC). The experiment is classed as in vitro ADME. The following applies: read-out: Cyp IC50 2C19. The procedure, abridged:
(§1)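 Inhibition is measured as the drop in fluorescent metabolite formation across a 10-point compound titration with NADPH regeneration at 37 °C. Incubation lasts 15 min for CYP1A2, 45 min for CYP2C9 and 30 min for CYP2C19 and CYP2D6.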

Another experiment deals with CYP2C9 (Homo sapiens, UniProt P11712). The experiment in a line: CYP2C9 inhibition (fluorescent substrate MFC). It counts as in vitro ADME. The following applies: read-out: Cyp IC50 2C9. The procedure, abridged: as §1
A further experiment concerns the target CYP3A4(BFC) (Homo sapiens, UniProt P08684). The experiment in a line: CYP3A4(BFC) inhibition. The experiment is classed as in vitro ADME. The settings on record: CYP3A4, substrate BFC; read-out: Cyp IC50 3A4(BFC). The procedure, abridged:
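Inhibition of human CYP3A4 with the BFC substrate was measured by fluorescence loss of the metabolized product. Compounds at 100 mM in DMSO were diluted 1 μL into 82 μL acetonitrile, then 11 μL into 204 μL cofactor mix with NADPH regeneration solutions, and serially diluted 1:1 to 10 points. Plates were incubated 30 min at 37° C and read at 409 ex/460 em to obtain IC50.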

In a further experiment the target is TrkA kinase (Homo sapiens, UniProt P04629). The experiment in a line: TrkA kinase biochemical activity assay (AlphaScreen). The following applies: 100 μM ATP; read-out: Biochemical Inhibition IC50 TrkA. The procedure, abridged: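 Recombinant TrkA with 30 nM biotin-(E4Y)10 and 100 μM ATP in 25 mM Hepes pH 7.5, 10 mM MnCl2, 5% DMSO, 40 min at room temperature. Phosphorylation read by AlphaScreen (streptavidin donor, PY20 acceptor beads); IC50 from signal vs compound concentration. TrkC run similarly.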

A further experiment has as its target CYP2D6 (Homo sapiens, UniProt P10635). The experiment in a line: CYP2D6 inhibition (fluorescent substrate AMMC). The settings on record: read-out: Cyp IC50 2D6. The experiment is classed as in vitro ADME. The essentials:
as §1

Sequence of TrkA kinase (P04629 33-796): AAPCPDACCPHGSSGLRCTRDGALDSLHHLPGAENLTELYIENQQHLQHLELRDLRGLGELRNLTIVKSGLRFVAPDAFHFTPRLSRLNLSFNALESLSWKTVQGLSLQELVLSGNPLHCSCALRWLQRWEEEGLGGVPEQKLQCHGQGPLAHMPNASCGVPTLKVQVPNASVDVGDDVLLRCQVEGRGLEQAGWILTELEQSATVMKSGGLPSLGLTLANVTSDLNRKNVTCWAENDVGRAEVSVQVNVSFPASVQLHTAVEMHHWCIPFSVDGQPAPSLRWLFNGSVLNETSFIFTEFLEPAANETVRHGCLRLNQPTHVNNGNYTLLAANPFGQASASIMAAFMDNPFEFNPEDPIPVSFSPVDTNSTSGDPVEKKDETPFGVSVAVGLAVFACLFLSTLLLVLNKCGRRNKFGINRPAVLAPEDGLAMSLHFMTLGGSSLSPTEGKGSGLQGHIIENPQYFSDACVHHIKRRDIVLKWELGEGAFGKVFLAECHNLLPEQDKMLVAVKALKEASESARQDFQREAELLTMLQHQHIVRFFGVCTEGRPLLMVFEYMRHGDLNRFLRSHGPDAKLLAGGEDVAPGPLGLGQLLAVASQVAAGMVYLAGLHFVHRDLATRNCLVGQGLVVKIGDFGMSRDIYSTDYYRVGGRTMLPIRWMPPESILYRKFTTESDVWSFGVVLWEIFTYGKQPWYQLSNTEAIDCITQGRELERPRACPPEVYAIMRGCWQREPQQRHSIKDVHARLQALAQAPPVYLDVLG
Sequence of CYP2D6 (P10635 whole entry): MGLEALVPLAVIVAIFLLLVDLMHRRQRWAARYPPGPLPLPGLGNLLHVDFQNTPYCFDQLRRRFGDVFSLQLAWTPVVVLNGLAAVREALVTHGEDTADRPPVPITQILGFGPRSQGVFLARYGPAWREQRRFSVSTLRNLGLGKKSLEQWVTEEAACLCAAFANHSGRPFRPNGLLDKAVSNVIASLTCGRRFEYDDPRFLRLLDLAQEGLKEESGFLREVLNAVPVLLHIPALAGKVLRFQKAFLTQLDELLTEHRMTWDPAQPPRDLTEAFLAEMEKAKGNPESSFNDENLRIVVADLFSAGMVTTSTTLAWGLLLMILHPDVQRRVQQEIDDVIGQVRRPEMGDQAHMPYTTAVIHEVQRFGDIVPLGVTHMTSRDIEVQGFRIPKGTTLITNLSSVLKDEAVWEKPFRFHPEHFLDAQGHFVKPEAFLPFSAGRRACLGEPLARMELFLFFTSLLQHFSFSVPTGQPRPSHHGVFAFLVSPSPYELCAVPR
Sequence of CYP2C19 (P33261 whole entry): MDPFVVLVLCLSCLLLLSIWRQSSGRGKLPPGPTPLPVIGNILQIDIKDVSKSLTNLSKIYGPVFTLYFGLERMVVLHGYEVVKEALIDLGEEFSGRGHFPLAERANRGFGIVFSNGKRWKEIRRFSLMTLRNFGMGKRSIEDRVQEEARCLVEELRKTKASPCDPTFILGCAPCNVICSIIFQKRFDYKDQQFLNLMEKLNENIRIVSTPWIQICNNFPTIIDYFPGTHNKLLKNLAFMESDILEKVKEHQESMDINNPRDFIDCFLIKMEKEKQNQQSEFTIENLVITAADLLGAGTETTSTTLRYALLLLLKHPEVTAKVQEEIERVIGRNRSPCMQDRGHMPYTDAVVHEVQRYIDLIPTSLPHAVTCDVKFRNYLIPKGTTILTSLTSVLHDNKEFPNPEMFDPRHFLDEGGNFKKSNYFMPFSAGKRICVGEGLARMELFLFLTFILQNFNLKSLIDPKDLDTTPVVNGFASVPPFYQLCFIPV
Sequence of CYP3A4(BFC) (P08684 whole entry): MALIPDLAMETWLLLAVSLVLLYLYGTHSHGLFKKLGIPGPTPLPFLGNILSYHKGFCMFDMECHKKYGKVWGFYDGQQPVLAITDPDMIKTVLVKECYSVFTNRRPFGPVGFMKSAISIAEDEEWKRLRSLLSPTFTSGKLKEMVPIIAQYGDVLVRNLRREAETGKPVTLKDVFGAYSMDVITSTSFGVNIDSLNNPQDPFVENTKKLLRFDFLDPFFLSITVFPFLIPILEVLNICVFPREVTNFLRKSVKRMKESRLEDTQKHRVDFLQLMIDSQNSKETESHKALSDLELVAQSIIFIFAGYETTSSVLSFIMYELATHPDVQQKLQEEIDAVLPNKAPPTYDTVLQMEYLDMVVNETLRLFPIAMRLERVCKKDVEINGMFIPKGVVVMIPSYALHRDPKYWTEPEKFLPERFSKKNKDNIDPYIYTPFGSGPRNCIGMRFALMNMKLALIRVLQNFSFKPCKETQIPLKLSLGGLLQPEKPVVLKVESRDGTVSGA
Sequence of CYP2C9 (P11712 whole entry): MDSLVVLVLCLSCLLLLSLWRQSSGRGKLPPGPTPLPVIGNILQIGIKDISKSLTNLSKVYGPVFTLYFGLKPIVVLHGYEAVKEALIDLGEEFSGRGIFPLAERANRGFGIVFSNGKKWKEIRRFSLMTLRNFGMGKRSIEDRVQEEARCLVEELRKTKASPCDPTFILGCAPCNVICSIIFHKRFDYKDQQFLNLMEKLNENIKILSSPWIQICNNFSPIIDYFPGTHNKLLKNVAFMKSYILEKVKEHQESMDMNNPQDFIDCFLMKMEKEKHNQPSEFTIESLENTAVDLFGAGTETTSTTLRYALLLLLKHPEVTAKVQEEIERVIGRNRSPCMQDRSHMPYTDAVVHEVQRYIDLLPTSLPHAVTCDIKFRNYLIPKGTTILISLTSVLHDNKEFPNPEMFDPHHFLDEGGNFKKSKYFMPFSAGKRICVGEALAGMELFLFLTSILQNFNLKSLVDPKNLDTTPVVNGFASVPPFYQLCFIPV

`CCc1ccc(Nc2ccc(C(=O)c3c[nH]c4ncnc(NC5CCCC5)c34)c(F)n2)cn1` [Compound P-4099, [4-(cyclopentylamino)-7H-pyrrolo[2,3-d]pyrimidin-5-yl]-[6-[(6-ethyl-3-pyridyl)amino]-2-fluoro-3-pyridyl]methanone]: the IC50 at CYP2C19 was below 5 µM; at CYP2C9 it was below 5 µM; on CYP3A4(BFC), above 10 µM; on TrkA kinase, below 0.1 µM; on CYP2D6 it was below 5 µM.

With `CCCCNc1ncnc2[nH]cc(C(=O)c3ccc(Nc4ccc(CC)nc4)nc3F)c12` [Compound P-4100, [4-(butylamino)-7H-pyrrolo[2,3-d]pyrimidin-5-yl]-[6-[(6-ethyl-3-pyridyl)amino]-2-fluoro-3-pyridyl]methanone], the IC50 on CYP2C19 is below 5 µM; on CYP2C9 it was below 5 µM; on CYP3A4(BFC), above 10 µM; on TrkA kinase, below 0.1 µM; at CYP2D6 it was below 5 µM.

Regarding `CC(C)Nc1ncnc2[nH]cc(C(=O)c3ccc(NC4CCCCC4)nc3F)c12` [Compound P-4101, [6-(cyclohexylamino)-2-fluoro-3-pyridyl]-[4-(isopropylamino)-7H-pyrrolo[2,3-d]pyrimidin-5-yl]methanone], the IC50 on CYP2C19 was 5 to 10 µM; on CYP2C9, 5 to 10 µM; at CYP3A4(BFC) it was above 10 µM; on TrkA kinase it was below 0.1 µM; at CYP2D6, above 10 µM.

On to `CNc1ncnc2[nH]cc(C(=O)c3ccc(NC4CCCCC4)nc3F)c12` [Compound P-4102, [6-(cyclohexylamino)-2-fluoro-3-pyridyl]-[4-(methylamino)-7H-pyrrolo[2,3-d]pyrimidin-5-yl]methanone], for which the IC50 at CYP2C19 is below 5 µM; on CYP2C9, below 5 µM; at CYP3A4(BFC), above 10 µM; on TrkA kinase, below 0.1 µM; on CYP2D6, below 5 µM.

On to `COc1cncc(Nc2ccc(C(=O)c3c[nH]c4ncnc(NCC(F)(F)F)c34)c(F)n2)c1` [Compound P-4103, [2-fluoro-6-[(5-methoxy-3-pyridyl)amino]-3-pyridyl]-[4-(2,2,2-trifluoroethylamino)-7H-pyrrolo[2,3-d]pyrimidin-5-yl]methanone], for which the IC50 is above 10 µM at CYP2C19; above 10 µM on CYP2C9; above 10 µM on CYP3A4(BFC); below 0.1 µM at TrkA kinase; above 10 µM at CYP2D6.

Turning to `COc1cncc(Nc2ccc(C(=O)c3c[nH]c4ncnc(NC5CCCCC5)c34)c(F)n2)c1` [Compound P-4104, [4-(cyclohexylamino)-7H-pyrrolo[2,3-d]pyrimidin-5-yl]-[2-fluoro-6-[(5-methoxy-3-pyridyl)amino]-3-pyridyl]methanone], the IC50 was 5 to 10 µM at CYP2C19; above 10 µM on CYP2C9; above 10 µM on CYP3A4(BFC); below 0.1 µM on TrkA kinase; above 10 µM on CYP2D6.

On to `CCCNc1ncnc2[nH]cc(C(=O)c3ccc(Nc4cncc(OC)c4)nc3F)c12` [Compound P-4105, [2-fluoro-6-[(5-methoxy-3-pyridyl)amino]-3-pyridyl]-[4-(propylamino)-7H-pyrrolo[2,3-d]pyrimidin-5-yl]methanone], for which the half-maximal inhibitory concentration (IC50) on CYP2C19 is above 10 µM; at CYP2C9, above 10 µM; at CYP3A4(BFC), above 10 µM; at TrkA kinase it was below 0.1 µM; at CYP2D6, above 10 µM.

As to `COc1cncc(Nc2ccc(C(=O)c3c[nH]c4ncnc(NC(C)C)c34)c(F)n2)c1` [Compound P-4106, [2-fluoro-6-[(5-methoxy-3-pyridyl)amino]-3-pyridyl]-[4-(isopropylamino)-7H-pyrrolo[2,3-d]pyrimidin-5-yl]methanone], the IC50 at CYP2C19 was below 5 µM; on CYP2C9 it was below 5 µM; at CYP3A4(BFC) it was above 10 µM; at TrkA kinase, below 0.01 µM; at CYP2D6 it was below 5 µM.

With `COc1cncc(Nc2ccc(C(=O)c3c[nH]c4ncnc(NC5CC5)c34)c(F)n2)c1` [Compound P-4107, [4-(cyclopropylamino)-7H-pyrrolo[2,3-d]pyrimidin-5-yl]-[2-fluoro-6-[(5-methoxy-3-pyridyl)amino]-3-pyridyl]methanone], the IC50 was below 5 µM at CYP2C19; below 5 µM at CYP2C9; above 10 µM at CYP3A4(BFC); below 0.01 µM on TrkA kinase; below 5 µM at CYP2D6.

As for `CNc1ncnc2[nH]cc(C(=O)c3ccc(Nc4cncc(OC)c4)nc3F)c12` [Compound P-4108, [2-fluoro-6-[(5-methoxy-3-pyridyl)amino]-3-pyridyl]-[4-(methylamino)-7H-pyrrolo[2,3-d]pyrimidin-5-yl]methanone], the IC50 was below 5 µM on CYP2C19; below 5 µM at CYP2C9; above 10 µM at CYP3A4(BFC); below 0.1 µM at TrkA kinase; below 5 µM on CYP2D6.

Consider `CC(C)Nc1ncnc2[nH]cc(C(=O)c3ccc(NC4CCCCC4)nc3Cl)c12` [Compound P-4109, [2-chloro-6-(cyclohexylamino)-3-pyridyl]-[4-(isopropylamino)-7H-pyrrolo[2,3-d]pyrimidin-5-yl]methanone], for which the IC50 at CYP2C19 was 5 to 10 µM; on CYP2C9, 5 to 10 µM; on CYP3A4(BFC), above 10 µM; on TrkA kinase it was below 0.1 µM; at CYP2D6, above 10 µM.

Turning to `CNc1ncnc2[nH]cc(C(=O)c3ccc(NC4CCCCC4)nc3Cl)c12` [Compound P-4110, [2-chloro-6-(cyclohexylamino)-3-pyridyl]-[4-(methylamino)-7H-pyrrolo[2,3-d]pyrimidin-5-yl]methanone], the IC50 at CYP2C19 is below 5 µM; on CYP2C9 it was below 5 µM; on CYP3A4(BFC) it was above 10 µM; on TrkA kinase, below 1 µM; on CYP2D6, below 5 µM.

Turning to `Cc1ccc(Nc2ccc(C(=O)c3c[nH]c4ncnc(NC5CCCCC5)c34)c(F)n2)cn1` [Compound P-4111, [4-(cyclohexylamino)-7H-pyrrolo[2,3-d]pyrimidin-5-yl]-[2-fluoro-6-[(6-methyl-3-pyridyl)amino]-3-pyridyl]methanone], the IC50 was 5 to 10 µM on CYP2C19; 5 to 10 µM at CYP2C9; above 10 µM at CYP3A4(BFC); below 0.1 µM on TrkA kinase; above 10 µM at CYP2D6.

As for `Cc1ccc(Nc2ccc(C(=O)c3c[nH]c4ncnc(NCC(F)(F)F)c34)c(F)n2)cn1` [Compound P-4112, [2-fluoro-6-[(6-methyl-3-pyridyl)amino]-3-pyridyl]-[4-(2,2,2-trifluoroethylamino)-7H-pyrrolo[2,3-d]pyrimidin-5-yl]methanone], the IC50 at CYP2C19 was below 5 µM; at CYP2C9 it was below 5 µM; on CYP3A4(BFC), above 10 µM; on TrkA kinase it was below 0.1 µM; on CYP2D6, below 5 µM.

As to `Cc1ccc(Nc2ccc(C(=O)c3c[nH]c4ncnc(NCC5CC5)c34)c(F)n2)cn1` [Compound P-4113, [4-(cyclopropylmethylamino)-7H-pyrrolo[2,3-d]pyrimidin-5-yl]-[2-fluoro-6-[(6-methyl-3-pyridyl)amino]-3-pyridyl]methanone], the IC50 was above 10 µM at CYP2C19; above 10 µM on CYP2C9; above 10 µM at CYP3A4(BFC); below 0.01 µM at TrkA kinase; above 10 µM on CYP2D6.

Turning to `CCCNc1ncnc2[nH]cc(C(=O)c3ccc(Nc4ccc(C)nc4)nc3F)c12` [Compound P-4114, [2-fluoro-6-[(6-methyl-3-pyridyl)amino]-3-pyridyl]-[4-(propylamino)-7H-pyrrolo[2,3-d]pyrimidin-5-yl]methanone], the IC50 is above 10 µM on CYP2C19; above 10 µM on CYP2C9; above 10 µM on CYP3A4(BFC); below 0.01 µM on TrkA kinase; above 10 µM at CYP2D6.

`CNc1ncnc2[nH]cc(C(=O)c3ccc(Nc4ccc(C)nc4)nc3F)c12` [Compound P-4115, [2-fluoro-6-[(6-methyl-3-pyridyl)amino]-3-pyridyl]-[4-(methylamino)-7H-pyrrolo[2,3-d]pyrimidin-5-yl]methanone]: the IC50 on CYP2C19 was below 5 µM; at CYP2C9, below 5 µM; on CYP3A4(BFC) it was above 10 µM; on TrkA kinase, below 0.01 µM; on CYP2D6, below 5 µM.

For the compound `CCc1ccc(Nc2ccc(C(=O)c3c[nH]c4ncnc(NC5CCOCC5)c34)c(F)n2)cn1` [Compound P-4116, [6-[(6-ethyl-3-pyridyl)amino]-2-fluoro-3-pyridyl]-[4-(tetrahydropyran-4-ylamino)-7H-pyrrolo[2,3-d]pyrimidin-5-yl]methanone], the IC50 was above 10 µM at CYP2C19; above 10 µM at CYP2C9; above 10 µM at CYP3A4(BFC); below 0.01 µM on TrkA kinase; above 10 µM at CYP2D6.

Turning to `CCc1ccc(Nc2ccc(C(=O)c3c[nH]c4ncnc(NC(C)C)c34)c(F)n2)cn1` [Compound P-4117, [6-[(6-ethyl-3-pyridyl)amino]-2-fluoro-3-pyridyl]-[4-(isopropylamino)-7H-pyrrolo[2,3-d]pyrimidin-5-yl]methanone], the IC50 on CYP2C19 is above 10 µM; at CYP2C9 it was 5 to 10 µM; on CYP3A4(BFC), above 10 µM; on TrkA kinase it was below 0.01 µM; on CYP2D6 it was above 10 µM.
